Source: patent US9447028B2, “Therapeutic aryl-amido-aryl compounds and their use” (King's College London, priority 2009, dated 2016)

Assays:
Assay type in all cases: cell-based
RARβ = target: T1, RARβ (Homo sapiens, UniProt P10826); assay: Transactivation assay for RAR beta (gal4-RAR fusion, luciferase reporter, COS-7 cells); settings: ratio of test compound EC50 to that of atRA; inactive = no agonist action at the highest concentration tested
T1 construct: gal4 (fusion partner); expressed in transfected cells; host or cells: COS-7
T1 sequence (P10826 183-417 limits assumed): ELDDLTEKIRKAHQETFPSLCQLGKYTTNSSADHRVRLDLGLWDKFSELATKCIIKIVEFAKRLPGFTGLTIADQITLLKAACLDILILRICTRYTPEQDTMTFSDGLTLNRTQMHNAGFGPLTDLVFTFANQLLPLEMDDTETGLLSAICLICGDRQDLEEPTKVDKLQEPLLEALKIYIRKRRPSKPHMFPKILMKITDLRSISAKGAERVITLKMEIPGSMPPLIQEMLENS
Procedure, shortened: (§1)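 COS-7 cells co-transfected with gal4–RAR ligand-binding-domain fusion and pFR-luc reporter, then treated with compound in phenol-red-free DMEM (1% DMSO) for about one day. Luciferase read after lysis with BrightGlo; EC50 values from replicate experiments given as a ratio of means.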

RARα = target: T2, RARα (Homo sapiens, UniProt P10276); assay: Transactivation assay for RAR alpha (gal4-RAR fusion, luciferase reporter, COS-7 cells); settings: for RARα/RARβ ratio (*): fold-selectivity for RARα over RARβ; for RARα activity ratio: ratio of test compound EC50 to that of atRA on the same plate
T2 construct: gal4 (fusion partner); expressed in transfected cells; host or cells: COS-7
T2 sequence (P10276 183-417 limits assumed): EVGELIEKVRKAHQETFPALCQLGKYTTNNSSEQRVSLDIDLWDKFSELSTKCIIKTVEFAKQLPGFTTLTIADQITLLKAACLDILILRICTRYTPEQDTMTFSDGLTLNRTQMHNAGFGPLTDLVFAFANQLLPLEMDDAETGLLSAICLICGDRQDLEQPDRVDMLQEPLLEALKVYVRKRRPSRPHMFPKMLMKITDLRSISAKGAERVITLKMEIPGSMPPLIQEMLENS
Procedure, shortened: as §1

RARγ = target: T3, RARγ (Homo sapiens, UniProt P13631); assay: Transactivation assay for RAR gamma (gal4-RAR fusion, luciferase reporter, COS-7 cells); settings: ratio of test compound EC50 to that of atRA; inactive = no agonist action at the highest concentration tested
T3 construct: gal4 (fusion partner); expressed in transfected cells; host or cells: COS-7
T3 sequence (P13631 185-419 limits assumed): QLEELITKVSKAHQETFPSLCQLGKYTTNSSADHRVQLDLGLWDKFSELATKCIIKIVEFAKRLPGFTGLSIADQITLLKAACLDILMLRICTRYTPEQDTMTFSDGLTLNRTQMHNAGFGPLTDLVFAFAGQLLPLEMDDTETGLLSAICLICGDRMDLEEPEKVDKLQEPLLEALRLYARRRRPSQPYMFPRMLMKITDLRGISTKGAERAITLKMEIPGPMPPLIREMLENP
Procedure, shortened: as §1

Row | SMILES | RARβ activity ratio (RARβ) | RARα/RARβ ratio (*) (RARα) | RARα activity ratio (RARα) | RARγ activity ratio (RARγ)
1 | CCC(CC)Oc1cc(C(=O)Nc2ccc(C(=O)O)c(C)c2)cc(Cl)c1OC [AAA-102, 4-(3-Chloro-4-methoxy-5-(pentan-3-yloxy)benzamido)-2-methylbenzoic acid] | 73 | 33 | 2.2 | 833
2 | CCC(CC)Oc1cc(C(=O)Nc2ccc(C(=O)O)c(F)c2)cc(Cl)c1OC [AAA-103, 4-(3-Chloro-4-methoxy-5-(pentan-3-yloxy)benzamido)-2-fluorobenzoic acid] | 57 | 21 | 2.6 | 583
3 | COCCOc1cc(C(=O)Nc2ccc(C(=O)O)c(F)c2)cc(Cl)c1OC [AAA-104, 4-(3-Chloro-4-methoxy-5-(2-methoxyethoxy)benzamido)-2-fluorobenzoic acid] | 10164 | 535 | 19 | 5000
4 | COc1c(Cl)cc(C(=O)Nc2ccc(C(=O)O)cc2)cc1OCC(C)(C)C [AAA-105, 4-(3-Chloro-4-methoxy-5-(neopentyloxy)benzamido)benzoic acid] | 8.4 | 13 | 0.66 | 941
5 | CCOc1cc(C(=O)Nc2ccc(C(=O)O)cc2)cc(OCC)c1Br [AAA-106, 4-(4-Bromo-3,5-diethoxybenzamido)benzoic acid] | 2245 | 34 | 66 | 2326
6 | CC(C)Oc1cc(C(=O)Nc2ccc(C(=O)O)cc2)cc(OC(C)C)c1Br [AAA-107, 4-(4-Bromo-3,5-diisopropoxybenzamido)benzoic acid] | 647 | 135 | 4.8 | 2833
7 | CC(C)Oc1cc(C(=O)Nc2ccc(C(=O)O)c(F)c2)cc(OC(C)C)c1Br [AAA-108, 4-(4-Bromo-3,5-diisopropoxybenzamido)-2-fluorobenzoic acid] | 1727 | 338 | 5.1 | 32500
8 | CC(C)Oc1cc(C(=O)Nc2ccc(C(=O)O)c(O)c2)cc(OC(C)C)c1Br [AAA-109, 4-(4-Bromo-3,5-diisopropoxybenzamido)-2-hydroxybenzoic acid] | 1583 | 396 | 4 | 792000
9 | CCOc1cc(C(=O)Nc2ccc(C(=O)O)c(C)c2)cc(OCC)c1Br [AAA-110, 4-(4-Bromo-3,5-diethoxybenzamido)-2-methylbenzoic acid] | 1921 | 120 | 16 | >12000
10 | Cc1cc(NC(=O)c2cc(OC(C)C)c(Br)c(OC(C)C)c2)ccc1C(=O)O [AAA-111, 4-(4-Bromo-3,5-diisopropoxybenzamido)-2-methylbenzoic acid] | 712 | 71 | 10 | 50000
11 | CC(C)Oc1cc(C(=O)Nc2ccc(C(=O)O)cc2)cc(OC(C)C)c1Cl [AAA-112, 4-(4-Chloro-3,5-diisopropoxybenzamido)benzoic acid] | 2464 | 1212 | 2 | 1268
12 | Cc1cc(NC(=O)c2cc(Cl)c(Cl)c(OC(C)C)c2)ccc1C(=O)O [AAA-113, 4-(3,4-Dichloro-5-isopropoxybenzamido)-2-methylbenzoic acid] | 900 | 231 | 3.9 | 11093
13 | CCOc1cc(C(=O)Nc2ccc(C(=O)O)cc2)cc(OC(CC)CC)c1Cl [AAA-114, 4-(4-Chloro-3-ethoxy-5-(pentan-3-yloxy)benzamido)benzoic acid] | 100 | 23 | 4.4 | 22759
14 | CCOc1cc(C(=O)Nc2ccc(C(=O)O)c(C)c2)cc(OC(CC)CC)c1Cl [AAA-115, 4-(4-Chloro-3-ethoxy-5-(pentan-3-yloxy)benzamido)-2-methylbenzoic acid] | 150 | 58 | 2.6 | 25172
15 | CCOc1cc(C(=O)Nc2ccc(C(=O)O)c(F)c2)cc(OC(CC)CC)c1Cl [AAA-116, 4-(4-Chloro-3-ethoxy-5-(pentan-3-yloxy)benzamido)-2-fluorobenzoic acid] | 208 | 46 | 4.5 | 55172
16 | Cc1cc(NC(=O)c2cc(OC(C)C)c(Cl)c(OC(C)C)c2)ccc1C(=O)O [AAA-117, 4-(4-Chloro-3,5-diisopropoxybenzamido)-2-methylbenzoic acid] | 273 | 68 | 4 | 29730
17 | COc1cc(C(=O)Nc2ccc(C(=O)O)cc2)cc(OC(C)C)c1Cl [AAA-118, 4-(4-Chloro-3-isopropoxy-5-methoxybenzamido)benzoic acid] | 1700 | 47 | 36 | 933333
18 | CC(C)Oc1cc(C(=O)Nc2ccc(C(=O)O)cc2)cc(OC(C)C)c1F [AAA-119, 4-(4-Fluoro-3,5-diisopropoxybenzamido)benzoic acid] | 5000 | 192 | 26 | >42000
19 | CC(C)Oc1cc(C(=O)Nc2ccc(C(=O)O)cc2)cc(C(F)(F)F)c1OC(C)C [AAA-120, 4-(3,4-Diisopropoxy-5-(trifluoromethyl)benzamido)benzoic acid] | 142 | 157 | 0.89 | 2162
20 | CCOc1ccc(C(=O)Nc2ccc(C(=O)O)cc2)cc1C(F)(F)F [XXX-01, 4-(4-Ethoxy-3-(trifluoromethyl)benzamido)benzoic acid, reference compound] | 2570 | 7.9 | 327 | inactive
21 | O=C(O)c1ccc(NC(=O)c2cc(Cl)cc(Cl)c2)cc1 [XXX-03, 4-(3,5-Dichlorobenzamido)benzoic acid, reference compound] | 642 | 7.1 | 90 | inactive
